Assay results as given in patent publication US20170029866A1 (Ameritox, Ltd, priority 2015, published 2017).

Legend:
[1] = Haldol in urine samples after hydrolysis with a betaglucuronidase enzyme; format: in vivo, human
[2] = Haldol in urine samples before hydrolysis; format: in vivo, human; details: Without Hydrolysis; summary of Table 1, N 151
[3] = With hydrolysis, summary of Table 1, N 151

Avg [1, 3]: 982.5 | Max [1, 3]: 16805.6 | Min [1, 3]: 0.0 | amount of Haldol determined in urine samples post hydrolysis versus before ([1]; human urine, betaglucuronidase hydrolysis): increased post hydrolysis | Avg [2]: 30.7 | Max [2]: 414.0 | Min [2]: 0.0
Structure (SMILES): O=C(CCCN1CCC(O)(c2ccc(Cl)cc2)CC1)c1ccc(F)cc1 [Haldol, Haloperidol]
